# Columns and labels:
# Format in all cases: cell-based, human
# COL1A1 mRNA expression = COL1A1 mRNA expression in NHDFs by qRT-PCR; conditions: 48 h
# Description: (§1) A former established cell culture model was utilized to investigate the effect of putative XT-I inhibitors on NHDFs. The inhibition studies were carried out with final inhibitor concentrations of 0.5, 1.0, 2.0 or 4.0 μM diluted in fully supplemented DMEM. In brief, unless otherwise stated, NHDFs were cultivated with a low density of 50 cells per mm^2 on a hard tissue culture substrate (100 × 20 mm dish) in fully supplemented DMEM with or without additional TGF-β1 (5 μg/L) for 24 h, promoting their transdifferentiation into proto-myofibroblasts. Thereafter, cells were treated with celastrol or amphotericin B in the presence or absence of TGF-β1 (5 μg/L) for an additional 48 h. Negative controls treated with solvent only were included for every sampling time. The final DMSO content of 0.04% (v/v) was kept constant in all inhibition experiments.
# (§2) The RNA extraction from cell lysates and cDNA synthesis for mRNA and miRNA expression analysis were performed as described previously.
# (§3) Quantitative real-time polymerase chain reaction (qRT-PCR) analysis using a LightCycler 480 Instrument II system (Roche, Basel, Swiss) was performed as previously described. […] The geometric mean of the expression levels of the housekeeping genes SDHA, RPL13A and B2M were calculated for expression normalization. The relative target gene mRNA expressions were determined by the ΔΔCT method considering the PCR efficiency. […]
# SMAD7 mRNA expression = SMAD7 mRNA expression in NHDFs by qRT-PCR; conditions: 2 μM in the presence of TGF-β1 (5 μg/L), 48 h
# Description: as §1, with “experiments. […]” for “experiments.”
# as §3
# TGFB1 mRNA expression = TGFB1 mRNA expression in NHDFs by qRT-PCR; conditions: 2 μM in the presence of TGF-β1 (5 μg/L), 48 h
# Description: as §1, §2, §3
compound,measurement,setting,value
"C[C@@H]1[C@H](O)[C@@H](C)/C=C/C=C/C=C/C=C/C=C/C=C/C=C/[C@H](O[C@@H]2O[C@H](C)[C@@H](O)[C@H](N)[C@@H]2O)C[C@@H]2O[C@](O)(C[C@@H](O)C[C@@H](O)[C@H](O)CC[C@@H](O)C[C@@H](O)CC(=O)O[C@H]1C)C[C@H](O)[C@H]2C(=O)O [Compound 17, Amphotericin B]",TGF-β1-mediated COL1A1 mRNA expression relative to TGF-β1 only,COL1A1 mRNA expression; 2.0 μM with TGF-β1 (5 μg/L),0.8 ± 0.06 fold
same,COL1A1 mRNA expression compared to controls treated with DMSO,"COL1A1 mRNA expression; amphotericin B treatment, not statistically significant (p = 0.2)",0.7 ± 0.1 fold
same,SMAD7 mRNA expression relative to TGF-β1 only,SMAD7 mRNA expression,1.3 ± 0.1 fold
same,TGFB1 mRNA expression relative to TGF-β1 only,TGFB1 mRNA expression,0.8 ± 0.04 fold

# Source: publication PMC7589200, “Identification of Putative Non-Substrate-Based XT-I Inhibitors by Natural Product Library Screening” (Biomolecules, 2020)
